From patent US5276049A, “Cyclic urea derivatives, pharmaceutical compositions containing these compounds and methods of using the same” (Dr. Karl Thomae GmbH, priority 1991, dated 1994) come the findings set out here.

What is called IC50 is the concentration at which inhibition is half-maximal. One may read the EC50 as the concentration giving half of the maximal effect.

The structures appear in SMILES notation. Structures can show the parent of a compound that is named as a salt.

One test relates to Human Thrombocytes. The experiment in a line: Fibrinogen Binding to Human Thrombocytes (I125-fibrinogen, gel-filtered platelets). The following applies: inhibition of I125-fibrinogen binding to gel-filtered human platelets, ADP, 20 minutes, ambient temperature; read-out: Fibrinogen Binding test IC50. The procedure: 1. Fibrinogen Binding to Human Thrombocytes Blood obtained by puncture of an antecubital vein was anticoagulated with trisodium citrate (final concentration: 13 mM) and centrifuged for 10 minutes at 170 *g. The supernatant platelet-rich plasma was placed on a Sepharose 2B column (Pharmacia) and eluted with a solution of 90 mM common salt, 14 mM trisodium citrate, 5 mM glucose and 50 mM tris(hydroxymethyl)aminomethane, adjusted to pH 7.4. The gel-filtered platelets (GFP) appearing in front of the plasma proteins were used for the binding tests. 50 μl of a 60 mM calcium chloride solution, 50 μl of a 0.6 mM adenosine diphosphate solution, 100 μl of substance solution or solvent and 50 μl of fibrinogen solution (containing 3 μg I125-fibrinogen) were added to 750 μl of GFP and incubated for 20 minutes at ambient temperature. The non-specific binding was measured in the presence of 3 mg/ml of cold fibrinogen. 900 μl of the incubate were carefully pipetted onto 250 μl of silicon oil (AP 38: AR 20, 1:2 v/v, Wacker Chemie) in Eppendorf vessels and centrifuged for 2 minutes at 10,000 *g. The aqueous supernatant and some of the oil were removed, the tip of the vessel with the platelet pellet was cut off and the quantity of bound fibrinogen was measured in a gamma-counter. The concentration of substance which inhibited fibrinogen binding by 50% was calculated from a series of concentrations and given as the IC50.

For test [1], the system named is thrombocyte aggregation in platelet-rich plasma. The experiment in a line: Antithrombotic effect: collagen-induced thrombocyte aggregation in platelet-rich plasma (Born and Cross). It counts as cell-based. Particulars: human platelet-rich plasma, 10 minutes preincubation at 37° C., read-out: Inhibition of platelet aggregation EC50. The procedure:
2. Antithrombotic Effect Method: The thrombocyte aggregation was measured in platelet-rich plasma from healthy test subjects using the Born and Cross method (J. Physiol. 170: 397 (1964)). In order to inhibit coaggulation the blood was mixed with 3.14% sodium citrate in a ratio by volume of 1:10. Collagen-induced aggregation: The decrease in the optical density of the platelet suspension was measured photometrically and recorded after the addition of the aggregation-initiating substance. The speed of aggregation was concluded from the angle of inclination of the density curve. The point on the curve at which there was maximum transmittance was used to calculate the optical density. The quantity of collagen used was as little as possible but sufficient to give an irreversible reaction curve. Standard commercial collagen produced by Hormonchemie of Munich was used. Before the addition of collagen the plasma was incubated with the substance for 10 minutes at 37° C. From the measurements obtained, an EC50 was determined graphically, relating to a 50% change in the optical density in terms of inhibiting aggregation.

Consider `COC(=O)CCc1ccc(N2C(=O)CN(c3ccc(C(=N)N)cc3)C2=O)cc1` [2(53), 1-(4-amidino-phenyl)-3-[4-(2-methoxycarbonyl-ethyl)-phenyl]-imidazolidin-2,4-dione hydrochloride], for which the IC50 in the test with Human Thrombocytes was 4500 nM. The EC50 in test [1] came out at 200 nM.
`COC(=O)CCc1ccc(N2CCN(c3ccc(C(=N)N)cc3)S2(=O)=O)cc1` [2(57), 2-(4-amidino-phenyl)-5-[4-(2-methoxycarbonyl-ethyl)-phenyl]-3,4-dihydro-2H,5H-1,2,5-thiadiazole-1,1-dioxide hydrochloride]: in the test with Human Thrombocytes, the concentration for half-maximal inhibition (IC50) was 640 nM. Also, the EC50 in test [1] was found to be 320 nM.
Taken in the same sequence, the figures for `COC(=O)CCc1ccc(-n2ccn(-c3ccc(C(=N)N)cc3)c2=O)cc1` [2(58), 1-(4-amidino-phenyl)-3-[4-(2-methoxycarbonyl-ethyl)-phenyl]-3H-imidazol-2-one hydrochloride] were 4700 nM and 140 nM.
In the case of `COC(=O)CCCCN1CCN(c2ccc(C(=N)N)cc2)C1=O` [2(71), 1-(4-amidino-phenyl)-3-(4-methoxycarbonyl-butyl)-imidazolidin-2-one hydrochloride], the IC50 in the test with Human Thrombocytes came to 13000 nM. Besides, the EC50 in test [1] is 14000 nM.
With `COC(=O)CNCCN1CCN(c2ccc(C(=N)N)cc2)C1=O` [2(75), 1-(4-amidino-phenyl)-3-(2-methoxycarbonylmethylamino-ethyl)-imidazolidin-2-one hydrochloride-acetate], the half-inhibitory concentration (IC50) in the test on Human Thrombocytes is 8000 nM. In addition, in test [1], the EC50 worked out at 27000 nM.
The matching figures for `COC(=O)CCc1ccc(-n2cc(-c3ccc(C(=N)N)cc3)n(C)c2=O)cc1` [2(81), 4-(4-amidino-phenyl)-1-[4-(2-methoxycarbonyl-ethyl)-phenyl]-3-methyl-3H-imidazol-2-one hydrochloride]: 19000 nM and 1500 nM.
Taken in the same sequence, the figures for `COC(=O)CCn1cc(-c2ccc(-c3ccc(C(=N)N)cc3)cc2)[nH]c1=O` [2(104), 4-(4'-amidino-4-biphenylyl)-1-(2-methoxycarbonyl-ethyl)-3H-imidazol-2-one hydrochloride] were 7100 nM and 2100 nM.
Taken in the same sequence, the figures for `COC(=O)CCn1cc(-c2ccc(-c3ccc(C(=N)N)cc3)cc2)n(C)c1=O` [2(105), 4-(4'-amidino-4-biphenylyl)-1-(2-methoxycarbonyl-ethyl)-3-methyl-3H-imidazol-2-one hydrochloride] were 28000 nM and 1100 nM.
Take `COC(=O)CCn1cc(-c2ccc(-c3ccc(C(=N)N)cc3)cc2)n(-c2ccccc2)c1=O` [2(106), 4-(4'-amidino-4-biphenylyl)-1-(2-methoxycarbonyl-ethyl)-3-phenyl-3H-imidazol-2-one hydrochloride]: in the test with Human Thrombocytes, the IC50 turned out to be 2700 nM. For the same molecule, the half-maximal effective concentration (EC50) in test [1] amounted to 6600 nM.
Taken in the same sequence, the figures for `COC(=O)CCc1ccc(-n2c(C)cn(-c3ccc(C(=N)N)cc3)c2=O)cc1` [2(115), 1-(4-amidino-phenyl)-3-[4-(2-methoxycarbonyl-ethyl)-phenyl]-4-methyl-3H-imidazol-2-one hydrochloride] were 530 nM and 80 nM.
As for `COC(=O)CCCCn1c(=O)n(-c2ccc(C(=N)N)cc2)c2ncccc21` [2(116), 3-(4-amidino-phenyl)-1-(4-methoxycarbonyl-butyl)-3H-imidazo[4,5-b]pyridin-2-one dihydrochloride], the IC50 in the test on Human Thrombocytes came to 59000 nM. The 50% effective concentration (EC50) in test [1] was 49000 nM.
The matching figures for `COC(=O)CCc1ccc(-n2c(C)nn(-c3ccc(C(=N)N)cc3)c2=O)cc1` [2(118), 2-(4-amidino-phenyl)-4-[4-(2-methoxycarbonyl-ethyl)-phenyl]-5-methyl-4H-1,2,4-triazol-3-one hydrochloride]: 2000 nM and 70 nM.
Taken in the same sequence, the figures for `CCc1nn(-c2ccc(C(=N)N)cc2)c(=O)n1-c1ccc(CCC(=O)OC)cc1` [2(119), 2-(4-amidino-phenyl)-5-ethyl-4-[4-(2-methoxycarbonyl-ethyl)-phenyl]-4H-1,2,4-triazol-3-one hydrochloride] were 280 nM and 40 nM.
Taken in the same sequence, the figures for `COC(=O)CCc1ccc(-n2cnn(-c3ccc(C(=N)N)cc3)c2=O)cc1` [2(123), 2-(4-amidino-phenyl)-4-[4-(2-methoxycarbonyl-ethyl)-phenyl]-4H-1,2,4-triazol-3-one hydrochloride] were 3100 nM and 70 nM.
With `COC(=O)C(Cc1ccc(-n2ccn(-c3ccc(C(=N)N)cc3)c2=O)cc1)N(Cc1ccccc1)Cc1ccccc1` (stereo not shown) [2(127), 1-(4-amidino-phenyl)-3-[4-(2-dibenzylamino-2-methoxycarbonyl-ethyl)-phenyl]-3H-imidazol-2-one hydrochloride], the IC50 in the test on Human Thrombocytes is 5600 nM. Also, the 50% effective concentration (EC50) in test [1] amounted to 18000 nM.
Taken in the same sequence, the figures for `COC(=O)CCN1CC(c2ccc(-c3ccc(C(=N)N)cc3)cc2)N(c2ccccc2)C1=O` (stereo not shown) [4(9), 4-(4'-amidino-4-biphenylyl)-1-(2-methoxycarbonyl-ethyl)-3-phenyl-imidazolidin-2-one hydrochloride] were 2600 nM and 9500 nM.
Regarding `COC(=O)CCN1CCN(C2CCN(c3ccc(C(=N)N)cc3)CC2)C1=O` [4(11), 1-[1-(4-amidino-phenyl)-4-piperidinyl]-3-(2-methoxycarbonyl-ethyl)-imidazolidin-2-one hydrochloride], the IC50 with Human Thrombocytes is 45000 nM. Also, in test [1], the concentration for a half-maximal effect (EC50) is 2300 nM.
The matching figures for `N=C(N)c1ccc(-c2ccc(C3CN(CCC(=O)O)C(=O)N3c3ccccc3)cc2)cc1` (stereo not shown) [4(13), 4-(4'-amidino-4-biphenylyl)-1-(2-carboxy-ethyl)-3-phenyl-imidazolidin-2-one hydrochloride]: 32 nM and 310 nM.
For `CN1C(=O)N(CCC(=O)O)CC1c1ccc(-c2ccc(C(=N)N)cc2)cc1` (stereo not shown) [4(14), 4-(4'-amidino-4-biphenylyl)-1-(2-carboxy-ethyl)-3-methyl-imidazolidin-2-one hydrochloride], the IC50 in the test on Human Thrombocytes was 41 nM. In addition, the EC50 in test [1] is 200 nM.
Taken in the same sequence, the figures for `N=C(N)c1ccc(-c2ccc(C3CN(CCC(=O)O)C(=O)N3)cc2)cc1` (stereo not shown) [4(15), 4-(4'-amidino-4-biphenylyl)-1-(2-carboxy-ethyl)-imidazolidin-2-one hydrochloride] were 42 nM and 300 nM.
In the case of `CN1C(=O)N(c2ccc(CCC(=O)O)cc2)CC1c1ccc(C(=N)N)cc1` (stereo not shown) [4(16), 4-(4-amidino-phenyl)-1-[4-(2-carboxy-ethyl)-phenyl]-3-methyl-imidazolidin-2-one hydrochloride], in the test with Human Thrombocytes, the IC50 was 1500 nM. Further, the EC50 in test [1] was 1900 nM.
The matching figures for `N=C(N)c1ccc(N2CCN(c3ccc(CC(N)C(=O)O)cc3)C2=O)cc1` (stereo not shown) [4(18), 1-(4-amidino-phenyl)-3-[4-(2-amino-2-carboxy-ethyl)-phenyl]-imidazolidin-2-one]: 48 nM and 210 nM.
Taken in the same sequence, the figures for `COC(=O)CCc1ccc(N2CCN(c3ccc(C(=N)NC(=O)OC)cc3)C2=O)cc1` [5(1), 1-(4-methoxycarbonylamidino-phenyl)-3-[4-(2-methoxycarbonyl-ethyl)-phenyl]-imidazolidin-2-one] were over 100000 nM and 20000 nM.
